Assay results as given in the NIST ThermoML archive (doi:10.1016/j.fluid.2010.09.023).
± gives the expanded uncertainty stated by the source.

Details: Liquid
[1] = 312.59 K, Closed cell (Static) method

**Q.** With `C=CCC` [1-butene] as the compound, how does the “vapor or sublimation pressure” value [1] read?
**A.** 448.3 ± 3.2 kPa

**Q.** Which “vapor or sublimation pressure” value (312.83 K, Ebulliometric method (Recirculating still)) does the source give for `CCOC(C)(C)C` [2-ethoxy-2-methylpropane] here?
**A.** 30.95 ± 0.33 kPa

**Q.** And the “vapor or sublimation pressure” value (312.84 K, Closed cell (Static) method)?
**A.** 31.9 ± 2.8 kPa

**Q.** What about the “vapor or sublimation pressure” value (330.44 K, Ebulliometric method (Recirculating still)) of the same compound?
**A.** 60.25 ± 0.34 kPa

**Q.** What about the “vapor or sublimation pressure” value (338.77 K, Ebulliometric method (Recirculating still)) of the same compound?
**A.** 80.14 ± 0.38 kPa

**Q.** And the “vapor or sublimation pressure” value (343.01 K, Ebulliometric method (Recirculating still))?
**A.** 92 ± 0.42 kPa

**Q.** And the “vapor or sublimation pressure” value (346.26 K, Ebulliometric method (Recirculating still))?
**A.** 102.08 ± 0.43 kPa

**Q.** And the “vapor or sublimation pressure” value (358.31 K, Closed cell (Static) method)?
**A.** 147.9 ± 2.8 kPa

**Q.** For `CC(C)C` [2-methylpropane], which “vapor or sublimation pressure” value (307.79 K, Closed cell (Static) method) is on record?
**A.** 460.8 ± 3.2 kPa

**Q.** Which “vapor or sublimation pressure” value [1] does the source give for `C=C(C)C` [2-methylpropene] here?
**A.** 467.1 ± 3.2 kPa

**Q.** For `CCCC` [butane], which “vapor or sublimation pressure” value (322.01 K, Closed cell (Static) method) is on record?
**A.** 479.5 ± 3.2 kPa

**Q.** With `CCC#N` [propanenitrile] as the compound, how does the “vapor or sublimation pressure” value (307.78 K, Closed cell (Static) method) read?
**A.** 9.47 ± 2.8 kPa

**Q.** And the “vapor or sublimation pressure” value (312.5 K, Closed cell (Static) method)?
**A.** 11.9 ± 2.8 kPa

**Q.** And the “vapor or sublimation pressure” value (312.58 K, Closed cell (Static) method)?
**A.** 11.9 ± 2.8 kPa

**Q.** What about the “vapor or sublimation pressure” value (313.15 K, Closed cell (Static) method) of the same compound?
**A.** 12.5 ± 2.8 kPa

**Q.** What about the “vapor or sublimation pressure” value (313.15 K, Ebulliometric method (Recirculating still)) of the same compound?
**A.** 12.72 ± 0.29 kPa

**Q.** What about the “vapor or sublimation pressure” value (322 K, Closed cell (Static) method) of the same compound?
**A.** 17.4 ± 2.8 kPa

**Q.** And the “vapor or sublimation pressure” value (339.57 K, Ebulliometric method (Recirculating still))?
**A.** 36.51 ± 0.3 kPa

**Q.** What about the “vapor or sublimation pressure” value (353.83 K, Ebulliometric method (Recirculating still)) of the same compound?
**A.** 60.04 ± 0.33 kPa

**Q.** What about the “vapor or sublimation pressure” value (358.33 K, Closed cell (Static) method) of the same compound?
**A.** 69.6 ± 2.8 kPa

**Q.** What about the “vapor or sublimation pressure” value (358.37 K, Ebulliometric method (Recirculating still)) of the same compound?
**A.** 69.81 ± 0.36 kPa

**Q.** And the “vapor or sublimation pressure” value (364.8 K, Ebulliometric method (Recirculating still))?
**A.** 85.5 ± 0.39 kPa

**Q.** And the “vapor or sublimation pressure” value (370.9 K, Ebulliometric method (Recirculating still))?
**A.** 103.12 ± 0.4 kPa
